Experimental data: patent publication US20250009739A1, “METHOD OF TREATING A SKIN DISORDER” (PHAMRI Norden AB, priority 2021, published 2025)

Assays:
CXCL1 = CXCL1 expression in TNFα-stimulated primary keratinocytes (Luminex on supernatant); type: cell-based, human; conditions: CXCL1, IL1a and TNFα in TNFα-stimulated keratinocytes; concentration where ENaC, NCX1 and NHE1 were predicted to be targeted
Protocol: Primary keratinocytes were stimulated with TNFα (5 ng/ml) for 24 hours and expression of pro-inflammatory cytokines involved in inflammatory skin disease was analyzed with benzamil as inhibitor and compared to inhibitors with different affinity to ENaC/NCX1/NHE1 (amiloride), ENaC but not NCX1 and NHE1 (Camostat mesilate), NCX1 but not ENaC or NHE1 (KB-R7943) or NHE but not ENaC or NCX1 (zoniporide).
Primary human keratinocytes were thawed according to manufacturer's instructions, washed in growth medium (GM) and viability assessed via Tryphan blue. Cells were incubated at 37° C. with 5% CO2. After confluence, a stock cell solution of 1.5×10^5 cells/ml was prepared in GM. 200 μL of the cell suspension was added to each well of respective 96 well plates for a total of 3×10^4 cells/well. Cells were incubated at 37° C. with 5% CO2 overnight for adherence. After overnight incubation, cell culture media was removed from each well and 100 μL of fresh GM was added to each well. Appropriate concentrations of inhibitor compound, vehicle and TNFα was prepared in GM of a final volume of 3 ml. […]
100 μl of each treatment was added to appropriate wells. […] 24 hours post TNFα stimulation, the fluorescence of each well was read at 544/590 nm for cell viability. […] The inflammatory cytokines TNFα, CXCL1 and IL1a in the cell culture supernatants were analysed by Luiminex. […]

[1] = tested on: Primary human keratinocytes; assay: Proliferation / cell viability (alamar blue) of TNFα-stimulated keratinocytes; type: cell-based; conditions: low-level inflamed keratinocyte conditions (TNFα 5 ng/ml, 24 hours)
Protocol: Primary human keratinocytes were thawed according to manufacturer's instructions, washed in growth medium (GM) and viability assessed via Tryphan blue. Cells were incubated at 37° C. with 5% CO2. After confluence, a stock cell solution of 1.5×10^5 cells/ml was prepared in GM. 200 μL of the cell suspension was added to each well of respective 96 well plates for a total of 3×10^4 cells/well. Cells were incubated at 37° C. with 5% CO2 overnight for adherence. After overnight incubation, cell culture media was removed from each well and 100 μL of fresh GM was added to each well. Appropriate concentrations of inhibitor compound, vehicle and TNFα was prepared in GM of a final volume of 3 ml. Concentrations of non-benzamil inhibitors were chosen to be 0.1×, 1× and 10× the IC50 for each primary target. […] Concentration of TNF alpha was selected to recapitulate a low level of pro-inflammatory cytokine stimulation.
100 μl of each treatment was added to appropriate wells. Samples were incubated for 24 hours. 20 hours post TNFα stimulation, 20 μL of alamar blue was added for each well. Cells were incubated for 4 hours at 37° C. 24 hours post TNFα stimulation, the fluorescence of each well was read at 544/590 nm for cell viability. […] The inflammatory cytokines TNFα, CXCL1 and IL1a in the cell culture supernatants were analysed by Luiminex. […]

ENaC [2] = conditions: cited from earlier work
NCX = NCX (Homo sapiens, UniProt P32418); conditions: cited from earlier work
ENaC [3] = conditions: cited from earlier work; remark: listed apart in the source
[4] = human oral dosing 10 mg, adults; cited from earlier work

NC(=NCc1ccccc1)NC(=O)c1nc(Cl)c(N)nc1N [benzamil]
efficacious concentration for reducing cytokine expression (CXCL1): above 1 uM
proliferation ([1]; FIG. 6): does not reduce proliferation
proliferation ([1]; FIG. 6, listed as Benzamil): did not reduce proliferation

CN(C)C(=O)COC(=O)Cc1ccc(OC(=O)c2ccc(NC(=N)N)cc2)cc1 [Camostat Mesilate, Camostat mesilate]
IC50 (ENaC [2]): 50 nM

N=C(N)SCCc1ccc(OCc2ccc([N+](=O)[O-])cc2)cc1 [KB-R7943]
IC50 (NCX): 5000 to 10000 nM

NC(=Nc1ccccc1)NC(=O)c1nc(Cl)c(N)nc1N [phenamil]
in vivo efficacy specifically on ENaC relative to amiloride (ENaC [3]): equivalent to amiloride

N=C(N)NC(=O)c1nc(Cl)c(N)nc1N [amiloride]
IC50 (ENaC [2]): 100 nM
serum concentration [4]: 20.6 ng/mL
